# Data: patent publication US12252555B2 (CHINA NATIONAL RESEARCH INSTITUTE OF FOOD & FERMENTATION …, priority 2018, dated 2025)
# No end group written: not given here.
# Key:
# Assay type in all cases: biochemical
# [1] = Determination of capacity to scavenge OH free radicals; settings: positive control; FIG. 12
# Description: (§1) [formula] 8.2 Determination of Capacity to Scavenge OH Free Radicals
# Sample solutions in different concentrations are taken and evenly mixed with FeSO4 ([…]) and salicylic acid-anhydrous ethanol solution ([…]) in a volume ratio of 1:2:2, the reaction is started with 1 volume of H2O2 solution ([…]), reacting in a water bath at 37° C. for 1 h, and the absorbance is measured at 510 nm in ultraviolet-visible spectrum, and recorded as A2. Correspondingly, the H2O2 solution ([…]) is replaced with 1 volume of water, and the ratio of remaining reagents remains unchanged, reacting in a water bath at 37° C. for 1 h, and the absorbance is measured at 510 nm in ultraviolet-visible spectrum, and recorded as A20. The sample solution is replaced with distilled water, and the ratio of remaining reagents remains unchanged, reacting in a water bath at 37° C. for 1 h, and the absorbance is measured at 510 nm, and recorded as A02. Experiment of each group is repeated three times, and average values are obtained and standard deviations are calculated. The sodium selenite and the pea oligopeptide are used as raw material controls before chelation, and ascorbic acid is used as a positive control, the scavenging rate of the sample on OH free radicals is calculated according to the following formula:
# (§2) [formula] 8.3 Determination of Reducing Capacity
# [2] = Determination of capacity to scavenge DPPH free radicals; settings: positive control; FIG. 10
# Description: 8.1 Determination of Capacity to Scavenge DPPH Free Radicals
# Samples in different concentrations are taken and mixed with DPPH-anhydrous ethanol solution ([…]) in a volume ratio of 1:1, and stored for 30 min under a dark condition, and the absorbance of the mixed solution is measured at 517 nm in ultraviolet-visible spectrum, and recorded as Ai. Correspondingly, sample solutions in different mass concentrations are evenly mixed with anhydrous ethanol solution in a volume ratio of 1:1, and stored for 30 min under a dark condition at room temperature, and the absorbance of the mixed solution is measured at 517 nm in ultraviolet-visible spectrum, and recorded as Aj. Distilled water is evenly mixed with DPPH-anhydrous ethanol solution ([…]) in a volume ratio of 1:1, and stored for 30 min under a dark condition at room temperature, and the absorbance is measured at 517 nm in ultraviolet-visible spectrum, and recorded as Ac. Experiment of each group is repeated three times, and average values are obtained and standard deviations are calculated. The sodium selenite and the pea oligopeptide are used as raw material controls before chelation, and ascorbic acid is used as a positive control, the scavenging rate of the sample on DPPH free radicals is calculated according to the following formula:
# as §1
# [3] = Determination of reducing capacity (K3[Fe(CN)6]/FeCl3, absorbance at 700 nm); settings: absorbance at 700 nm about 1.6; FIG. 14
# Description: as §2
# Sample solutions in different concentrations are taken and evenly mixed with phosphate buffer (0.2 mol/L, pH 6.6) and K3[Fe(CN)6] solution with a mass concentration of 1% in a volume ratio of 1:1:1, stored in a water bath at 50° C. for 10 min, and quickly cooled with cold water. 1 volume of trichloroacetic acid solution with a mass concentration of 10% is added, shaken well quickly and thoroughly under a dark condition, and then 1 volume of reaction mixture is taken out, and added with 1 volume of distilled water and 0.2 volume of FeCl3 solution with a mass concentration of 0.1%, and after shaking well quickly and thoroughly under a dark condition, standing for 10 min, the absorbance is measured at 700 nm, and recorded as A3. The sodium selenite and the pea oligopeptide are used as raw material controls before chelation, and ascorbic acid is used as an overall control, the absorbance A3 is directly used as a parameter of the reducing capacity of the sample. Experiment of each group is repeated three times, and average values are obtained and standard deviations are calculated.
# [4] = Identification of oxidation resistance by ABTS+ method (Trolox standard); design: Total antioxidant capacity: unit not given here; settings: for Total antioxidant capacity: ABTS+ method, sample 5 mg/mL, Trolox standard curve, 734 nm; for Increased multiple, compared with selenium-chelating pea oligopeptide: ratio of total antioxidant capacity
# Description: 9.2 Identification of Oxidation Resistance of Peptide Segment
Molecule,IC50 value of scavenging OH free radical [1] [µg/mL],IC50 value of scavenging DPPH free radical [2] [µg/mL],Required concentration for absorbance value about 1.6 (reducing capacity) [3] [µg/mL],Total antioxidant capacity [4],"Increased multiple, compared with selenium-chelating pea oligopeptide [4]"
O=C1O[C@H]([C@@H](O)CO)C(O)=C1O [ascorbic acid],1024.87 ± 5.96,4.85 ± 0.02,400,,
HQMPKP [standard synthetic peptide segment identified in the selenium-chelating pea oligopeptide],,,,−9.53,
PPKIYP [standard synthetic peptide segment identified in the selenium-chelating pea oligopeptide],,,,211.12,3.90
TGRGAP [standard synthetic peptide segment identified in the selenium-chelating pea oligopeptide],,,,3.25,0.06
Thr-Ser-Ser-Leu-Pro (TSSLP; listed as Pisum sativum) [standard synthetic peptide segment identified in the selenium-chelating pea oligopeptide],,,,5.55,0.10
